pEC50: −log10 of the molar value.

This assay relates to HBV. Put plainly: HBV-DNA Antiviral Assay Using HepG2.117 Cells (intracellular HBV DNA by qPCR). In kind it is cell-based, hepatitis B virus (genotype D). To be noted: Hepatitis B virus, HepG2.117. The gist of the method:
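Endpoint: qPCR copy number of intracellular HBV DNA after 3-day compound exposure, with inhibition set relative to the 2% DMSO control. The cells were doxycycline-free HepG2.117 carrying a Tet-off genotype D genome, dosed at nine 4-fold dilutions. A duplicate plate gave ATP-based viability (CC50).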
On the technique in general: Quantitative PCR measures a nucleic acid by following its amplification.
Molecule `O=C(NCc1ccccc1)c1c2n(c(=O)n1-c1ncccn1)CCN(C(=O)c1ccc(Cl)c(Cl)c1)C2` [Example 138, N-benzyl-7-(3,4-dichlorobenzoyl)-3-oxo-2-pyrimidin-2-yl-6,8-dihydro-5H-imidazo[1,5-a]pyrazine-1-carboxamide] showed a pEC50 of under 5.30.
In the case of `COc1ccc(-n2c(C(=O)NCc3ccc(Cl)cc3)c3n(c2=O)CCN(C(=O)c2ccc(Br)c(Cl)c2)C3)cc1` [Example 139, 7-(4-bromo-3-chloro-benozyl)-N-[(4-chlorophenyl)methyl]-2-(4-methoxyphenyl)-3-oxo-6,8-dihydro-5H-imidazo[1,5-a]pyrazine-1-carboxamide] it was 6.30 to 7.00.
In the case of `COc1ccc(-n2c(C(=O)NCc3ccc(C(F)(F)F)cc3)c3n(c2=O)CCN(C(=O)c2ccc(Br)c(Cl)c2)C3)cc1` [Example 140, 7-(4-bromo-3-chloro-benzoyl)-2-(4-methoxyphenyl)-3-oxo-N-[[4-(trifluoromethyl)phenyl]methyl]-6,8-dihydro-5H-imidazo[1,5-a]pyrazine-1-carboxamide] it was 5.30 to 6.30.
`COc1ccc(-n2c(C(=O)NC(C)c3ccc(F)cc3)c3n(c2=O)CCN(C(=O)c2ccc(Br)c(Cl)c2)C3)cc1` (stereo not shown) [Example 141, 7-(4-bromo-3-chloro-benzoyl)-N-[1-(4-fluorophenyl)ethyl]-2-(4-methoxyphenyl)-3-oxo-6,8-dihydro-5H-imidazo[1,5-a]pyrazine-1-carboxamide] showed a pEC50 of 6.30 to 7.00.
The value for `COc1ccc(-n2c(C(=O)NCc3ccc(C(C)C)cc3)c3n(c2=O)CCN(C(=O)c2ccc(Br)c(Cl)c2)C3)cc1` [Example 142, 7-(4-bromo-3-chloro-benzoyl)-N-[(4-isopropylphenyl)methyl]-2-(4-methoxyphenyl)-3-oxo-6,8-dihydro-5H-imidazo[1,5-a]pyrazine-1-carboxamide] was 6.30 to 7.00.
The value for `COc1ccc(-n2c(C(=O)NCc3ccc(OC)cc3OC)c3n(c2=O)CCN(C(=O)c2ccc(Br)c(Cl)c2)C3)cc1` [Example 143, 7-(4-bromo-3-chloro-benzoyl)-N-[(2,4-dimethoxyphenyl)methyl]-2-(4-methoxyphenyl)-3-oxo-6,8-dihydro-5H-imidazo[1,5-a]pyrazine-1-carboxamide] was over 7.00; that for `COc1ccc(-n2c(C(=O)NCc3ccc(OC(F)F)cc3)c3n(c2=O)CCN(C(=O)c2ccc(Br)c(Cl)c2)C3)cc1` [Example 148, 7-(4-bromo-3-chloro-benzoyl)-N-[[4-(difluoromethoxy)phenyl]methyl]-2-(4-methoxyphenyl)-3-oxo-6,8-dihydro-5H-imidazo[1,5-a]pyrazine-1-carboxamide] was 6.30 to 7.00; that for `COc1ccc(-n2c(C(=O)NCc3cccc(C(F)(F)F)c3)c3n(c2=O)CCN(C(=O)c2ccc(Br)c(Cl)c2)C3)cc1` [Example 152, 7-(4-bromo-3-chloro-benzoyl)-2-(4-methoxyphenyl)-3-oxo-N-[[3-(trifluoromethyl)phenyl]methyl]-6,8-dihydro-5H-imidazo[1,5-a]pyrazine-1-carboxamide] was 6.30 to 7.00.
`COc1ccc(-n2c(C(=O)NCc3cc(OC)cc(OC)c3)c3n(c2=O)CCN(C(=O)c2ccc(Br)c(Cl)c2)C3)cc1` [Example 153, 7-(4-bromo-3-chloro-benzoyl)-N-[(3,5-dimethoxyphenyl)methyl]-2-(4-methoxyphenyl)-3-oxo-6,8-dihydro-5H-imidazo[1,5-a]pyrazine-1-carboxamide] showed a pEC50 of 6.30 to 7.00.
In the case of `COc1ccc(-n2c(C(=O)NCc3ccccc3C#N)c3n(c2=O)CCN(C(=O)c2ccc(Br)c(Cl)c2)C3)cc1` [Example 154, 7-(4-bromo-3-chloro-benzoyl)-N-[(2-cyanophenyl)methyl]-2-(4-methoxyphenyl)-3-oxo-6,8-dihydro-5H-imidazo[1,5-a]pyrazine-1-carboxamide] it was 6.30 to 7.00.

As a reminder, the pEC50 is the EC50 on a negative log10 scale, so that one unit is a factor of ten. The low end stands for a high EC50, the high end for a low EC50.

Source of the values: patent US11591341B2 (ALIGOS THERAPEUTICS, INC., priority 2019, dated 2023).
